Values quoted from earlier work in PubChem BioAssay AID1259409 (Chemical Carcinogenesis Research Information System (CCRIS), 2018).

Tested on: rodent chemically induced tumor inhibition, incidence and multiplicity
Assay: CCRIS tumor inhibitor studies

NCCCC(N)(C(=O)O)C(F)F (centres undefined)
tumour outcome (control, treated, inhibition, significance) (Carcinogen: N-ETHYL-N-NITROSOUREA, 759-73-9, Dose [Inhibitor]: 0, 500 MG/KG DIET FOR DURATION OF STUDY BEGINNING POST CARCINOGEN DOSE (STUDY DURATION: 35 WK), Route [Inhibitor]: ORAL, Species: MOUSE, Strain/Sex: PIM/MALE, Target Tissue: Type of Lesion: LYMPHATIC SYSTEM: LYMPHOMA, Dose [Carcinogen]: 50 MG/KG BW ONCE, Promoter: NONE USED): 21/40 (53%), 9/28 (32%), 40%, not significant
tumour outcome (control, treated, inhibition, significance) (Carcinogen: N-ETHYL-N-NITROSOUREA, 759-73-9, Dose [Inhibitor]: 0, 1000 MG/KG DIET FOR DURATION OF STUDY BEGINNING POST CARCINOGEN DOSE (STUDY DURATION: 35 WK), Route [Inhibitor]: ORAL, Species: MOUSE, Strain/Sex: PIM/MALE, Target Tissue: Type of Lesion: LYMPHATIC SYSTEM: LYMPHOMA, Dose [Carcinogen]: 50 MG/KG BW ONCE, Promoter: NONE USED): 21/40 (53%), 16/40 (40%), 26%, not significant
tumour outcome (control, treated, inhibition, significance) (Carcinogen: N-METHYL-N'-NITRO-N-NITROSOGUANIDINE, 70-25-7, Dose [Inhibitor]: 0, 0.5% IN DRINKING WATER ADMINISTERED CONCURRENTLY WITH CARCINOGEN FOR 35 WK (STUDY DURATION: 85 WK), Route [Inhibitor]: ORAL, Species: RAT, Strain/Sex: WISTAR/MALE, Target Tissue: Type of Lesion: DUODENUM: TUMOR, Dose [Carcinogen]: 2.5 MG IN DRINKING WATER FOR 35 WK, Promoter: NONE USED): 4/22 (18%), 9/25 (36%), -100%, not significant
tumour outcome (control, treated, inhibition, significance) (Carcinogen: N-METHYL-N'-NITRO-N-NITROSOGUANIDINE, 70-25-7, Dose [Inhibitor]: 0, 0.5% IN DRINKING WATER ADMINISTERED CONCURRENTLY WITH CARCINOGEN FOR 35 WK (STUDY DURATION: 85 WK), Route [Inhibitor]: ORAL, Species: RAT, Strain/Sex: WISTAR/MALE, Target Tissue: Type of Lesion: STOMACH: ADENOCARCINOMA, Dose [Carcinogen]: 2.5 MG IN DRINKING WATER FOR 35 WK, Promoter: NONE USED): 12/22 (55%), 3/25 (12%), 78%, p<0.005
tumour outcome (control, treated, inhibition, significance) (Carcinogen: N-METHYL-N'-NITRO-N-NITROSOGUANIDINE, 70-25-7, Dose [Inhibitor]: 0, 0.5% IN DRINKING WATER ADMINISTERED CONCURRENTLY WITH CARCINOGEN FOR 35 WK (STUDY DURATION: 85 WK), Route [Inhibitor]: ORAL, Species: RAT, Strain/Sex: WISTAR/MALE, Target Tissue: Type of Lesion: STOMACH: ADENOMA, Dose [Carcinogen]: 2.5 MG IN DRINKING WATER FOR 35 WK, Promoter: NONE USED): 5/22 (23%), 4/25 (16%), 30%, not significant
tumour outcome (control, treated, inhibition, significance) (Carcinogen: N-METHYL-N'-NITRO-N-NITROSOGUANIDINE, 70-25-7, Dose [Inhibitor]: 0, 0.5% IN DRINKING WATER ADMINISTERED CONCURRENTLY WITH CARCINOGEN FOR 35 WK (STUDY DURATION: 85 WK), Route [Inhibitor]: ORAL, Species: RAT, Strain/Sex: WISTAR/MALE, Target Tissue: Type of Lesion: STOMACH: SARCOMA, Dose [Carcinogen]: 2.5 MG IN DRINKING WATER FOR 35 WK, Promoter: NONE USED): 2/22 (9%), 0/25 (0%), 100%, not significant
tumour outcome (control, treated, inhibition, significance) (Carcinogen: N-METHYL-N'-NITRO-N-NITROSOGUANIDINE, 70-25-7, Dose [Inhibitor]: 0, 1% IN DRINKING WATER ADMINISTERED CONCURRENTLY WITH CARCINOGEN FOR 35 WK (STUDY DURATION: 85 WK), Route [Inhibitor]: ORAL, Species: RAT, Strain/Sex: WISTAR/MALE, Target Tissue: Type of Lesion: DUODENUM: TUMOR, Dose [Carcinogen]: 2.5 MG IN DRINKING WATER FOR 35 WK, Promoter: NONE USED): 4/22 (18%), 9/25 (36%), -100%, not significant
tumour outcome (control, treated, inhibition, significance) (Carcinogen: N-METHYL-N'-NITRO-N-NITROSOGUANIDINE, 70-25-7, Dose [Inhibitor]: 0, 1% IN DRINKING WATER ADMINISTERED CONCURRENTLY WITH CARCINOGEN FOR 35 WK (STUDY DURATION: 85 WK), Route [Inhibitor]: ORAL, Species: RAT, Strain/Sex: WISTAR/MALE, Target Tissue: Type of Lesion: STOMACH: ADENOCARCINOMA, Dose [Carcinogen]: 2.5 MG IN DRINKING WATER FOR 35 WK, Promoter: NONE USED): 12/22 (55%), 5/25 (20%), 64%, p<0.05
tumour outcome (control, treated, inhibition, significance) (Carcinogen: N-METHYL-N'-NITRO-N-NITROSOGUANIDINE, 70-25-7, Dose [Inhibitor]: 0, 1% IN DRINKING WATER ADMINISTERED CONCURRENTLY WITH CARCINOGEN FOR 35 WK (STUDY DURATION: 85 WK), Route [Inhibitor]: ORAL, Species: RAT, Strain/Sex: WISTAR/MALE, Target Tissue: Type of Lesion: STOMACH: ADENOMA, Dose [Carcinogen]: 2.5 MG IN DRINKING WATER FOR 35 WK, Promoter: NONE USED): 5/22 (23%), 3/25 (12%), 48%, not significant
tumour outcome (control, treated, inhibition, significance) (Carcinogen: N-METHYL-N'-NITRO-N-NITROSOGUANIDINE, 70-25-7, Dose [Inhibitor]: 0, 1% IN DRINKING WATER ADMINISTERED CONCURRENTLY WITH CARCINOGEN FOR 35 WK (STUDY DURATION: 85 WK), Route [Inhibitor]: ORAL, Species: RAT, Strain/Sex: WISTAR/MALE, Target Tissue: Type of Lesion: STOMACH: SARCOMA, Dose [Carcinogen]: 2.5 MG IN DRINKING WATER FOR 35 WK, Promoter: NONE USED): 2/22 (9%), 3/25 (12%), -33%, not significant
tumour outcome (control, treated, inhibition, significance) (Carcinogen: N-METHYL-N-BENZYLNITROSAMINE, 937-40-6, Dose [Inhibitor]: 0, 1% IN DEIONIZED WATER WITH ZINC-DEFICIENT DIET FOR 15 WK STARTING 1 HR POST CARCINOGEN TREATMENT (STUDY DURATION: 20, Route [Inhibitor]: ORAL, Species: RAT, Strain/Sex: SPRAGUE-DAWLEY/MALE, Target Tissue: Type of Lesion: ESOPHAGUS: TUMOR, Dose [Carcinogen]: 2 MG/KG BW ONCE ADMINISTERED AFTER 5 WK OF ZINC-DEFICIENT DIET TREATMENT): 89% (8/9), 10% (2/20), 89%, p<0.0001
tumour outcome (control, treated, inhibition, significance) (Carcinogen: N-METHYL-N-NITROSOUREA, 684-93-5, Dose [Inhibitor]: 0, 0.5 IN 2% NORMAL URINE INTO HETEROTOPICALLY TRANSPLANTED BLADDER 2/WK FOR 22 WK BEGINNING 1 WK POST CARCINOGEN (STUDY, Route [Inhibitor]: INJECTION, Species: RAT, Strain/Sex: F344/MALE, Target Tissue: Type of Lesion: BLADDER: TRANSITIONAL CELL CARCINOMA, Dose [Carcinogen]: 0.25 MG IN 0.9% SALINE 1/WK FOR 3 WK INTO BLADDER 4 WK AFTER HETEROTOPIC TRANSPLANT INTO GLUTEAL MUSCLE): 31/38 (82%), 5/37 (16%), 80%, p<0.001
tumour outcome (control, treated, inhibition, significance) (Carcinogen: N-METHYL-N-NITROSOUREA, 684-93-5, Dose [Inhibitor]: 0, 0.5 IN 2% NORMAL URINE INTO HETEROTOPICALLY TRANSPLANTED BLADDER 2/WK FOR 29 WK BEGINNING 1 WK POST CARCINOGEN (STUDY, Route [Inhibitor]: INJECTION, Species: RAT, Strain/Sex: F344/MALE, Target Tissue: Type of Lesion: BLADDER: TRANSITIONAL CELL CARCINOMA, Dose [Carcinogen]: 0.25 MG IN 0.9% SALINE ONCE INTO BLADDER 4 WK AFTER HETEROTOPIC TRANSPLANT INTO GLUTEAL MUSCLE): 15/35 (43%), 3/34 (9%), 79%, p<0.005
tumour outcome (control, treated, inhibition, significance) (Carcinogen: N-METHYL-N-NITROSOUREA, 684-93-5, Dose [Inhibitor]: 0.5 ML OF 2% AGENT IN 0.9% SALINE SOLUTION TWICE IN WK 1 THEN ONCE 2 HR POST CARCINOGEN DOSE THEN TWICE IN WEEK 2 (STUDY, Route [Inhibitor]: INTRAVESICAL, Species: RAT, Strain/Sex: F344/MALE, Target Tissue: Type of Lesion: BLADDER: CARCINOMA, Dose [Carcinogen]: 0.25 MG IN 0.5 ML OF 0.9% SALINE SOLUTION ONCE, Promoter: URINE): 25/36 (69%), 25/37 (68%), 1%, not calculated
